Experimental data reported in patent US20250064941A1, “SIGLEC LIGANDS, CONJUGATES, AND METHODS OF USE THEREOF” (Osprey Biopharmaceuticals, Inc., priority 2023, published 2025).

Tests used:
[1] = target: cynomolgus Siglec-2/CD22 (Macaca fascicularis, UniProt A0A2K5WCZ6); assay: biochemical; type: binding; settings: SPR, steady-state analysis; read-out: Affinity cyno CD22
Protocol: Prior to immobilization, CD22 proteins were treated with SialoExo (Genovis, Cat #G1-SM1-020) for 4 hours at 37° C. to remove native sialic acid residues.
Surface preparation for cyno CD22 protein consisted of amine coupling to Cytiva CM5 chip (Cytiva, Cat #BR100530) using the Cytiva amine coupling kit Type 2 (Cytiva, Cat #BR100633). Following the standard amine coupling protocols, EDC and NHS from the kit were mixed 1:1 and injected over flow cells 1 and 2. […] Any active carboxy groups were then capped with 1M Ethanolamine, pH 8.5 for 420s on flow cells 1 and 2.
Binding experiments of Siglec-ligand conjugated proteins or Siglec ligand compounds were performed on the surfaces prepared above in 10 mM HEPES, 150 mM NaCl, 0.05% Tween-20, pH 7.5, 1% DMSO as the running buffer. […] The compounds were then allowed to dissociate from the surface for 120 seconds. […] Solvent correction was performed using 0.5, 1, 1.5, and 2% DMSO spike into running buffer without DMSO. […] Data was analyzed using steady-state analysis in Biacore Insight Evaluation Software, version 3.0 for Siglec ligand compounds.

[2] = target: T1, human Siglec-2/CD22 protein (Homo sapiens, UniProt P20273); assay: SPR binding affinity to human CD22; settings: steady-state analysis
T1 construct: purchased Acro Biosystems SI2-H82E3
T1 sequence (P20273 20-847): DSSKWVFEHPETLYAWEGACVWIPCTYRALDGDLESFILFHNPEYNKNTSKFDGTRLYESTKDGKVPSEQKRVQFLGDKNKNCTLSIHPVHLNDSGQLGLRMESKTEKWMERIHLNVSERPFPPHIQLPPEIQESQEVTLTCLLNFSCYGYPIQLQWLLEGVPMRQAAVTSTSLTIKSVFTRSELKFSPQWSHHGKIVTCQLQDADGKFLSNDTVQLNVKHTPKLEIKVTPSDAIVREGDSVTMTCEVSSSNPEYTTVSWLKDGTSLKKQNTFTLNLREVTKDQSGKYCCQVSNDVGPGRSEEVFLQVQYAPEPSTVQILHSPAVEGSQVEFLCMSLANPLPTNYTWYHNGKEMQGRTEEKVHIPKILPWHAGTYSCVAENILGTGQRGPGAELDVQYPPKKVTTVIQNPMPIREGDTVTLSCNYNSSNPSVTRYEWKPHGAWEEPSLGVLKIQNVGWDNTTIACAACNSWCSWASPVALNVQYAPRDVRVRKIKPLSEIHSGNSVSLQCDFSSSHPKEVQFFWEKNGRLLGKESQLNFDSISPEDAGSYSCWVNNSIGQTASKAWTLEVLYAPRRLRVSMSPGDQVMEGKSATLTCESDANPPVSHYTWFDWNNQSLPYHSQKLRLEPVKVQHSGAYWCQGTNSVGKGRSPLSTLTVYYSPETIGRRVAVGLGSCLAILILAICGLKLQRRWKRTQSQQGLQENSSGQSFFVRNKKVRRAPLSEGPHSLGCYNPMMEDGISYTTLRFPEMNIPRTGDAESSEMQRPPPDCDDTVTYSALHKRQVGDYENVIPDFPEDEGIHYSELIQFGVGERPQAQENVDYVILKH
Procedure, shortened: (§1)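 Using a Biacore 8K, compounds were tested against biotinylated CD22 captured after sialidase treatment. The running buffer held 1% DMSO, corrected with a 0.5–2% DMSO series. Affinity was derived by steady-state analysis.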

[3] = target: T2, mouse Siglec-2-Fc-Avi (CD22) (Mus musculus, UniProt P35329); assay: SPR binding affinity to mouse CD22; settings: steady-state analysis
T2 construct: made in house
T2 sequence (P35329 22-708 limits assumed): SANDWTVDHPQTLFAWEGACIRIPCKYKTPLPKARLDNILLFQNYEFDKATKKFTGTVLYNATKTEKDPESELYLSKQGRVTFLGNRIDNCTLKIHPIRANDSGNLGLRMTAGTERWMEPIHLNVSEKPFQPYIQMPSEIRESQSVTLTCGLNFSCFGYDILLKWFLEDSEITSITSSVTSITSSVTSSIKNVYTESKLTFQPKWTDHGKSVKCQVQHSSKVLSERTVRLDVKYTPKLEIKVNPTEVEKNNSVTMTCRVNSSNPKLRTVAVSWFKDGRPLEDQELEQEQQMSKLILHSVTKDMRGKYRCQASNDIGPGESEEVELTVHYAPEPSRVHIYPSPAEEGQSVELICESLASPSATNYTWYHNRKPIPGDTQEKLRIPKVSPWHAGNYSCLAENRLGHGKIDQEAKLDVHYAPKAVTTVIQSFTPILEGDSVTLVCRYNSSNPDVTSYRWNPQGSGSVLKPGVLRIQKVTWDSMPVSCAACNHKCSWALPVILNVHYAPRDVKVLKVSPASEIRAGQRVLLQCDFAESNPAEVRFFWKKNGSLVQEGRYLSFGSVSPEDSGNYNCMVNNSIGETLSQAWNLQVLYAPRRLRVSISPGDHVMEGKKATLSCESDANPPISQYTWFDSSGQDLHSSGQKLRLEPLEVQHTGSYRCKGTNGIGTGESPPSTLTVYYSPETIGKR
Procedure, shortened: as §1

cynomolgus Siglec-2/CD22, sequence (A0A2K5WCZ6 entry or part of it): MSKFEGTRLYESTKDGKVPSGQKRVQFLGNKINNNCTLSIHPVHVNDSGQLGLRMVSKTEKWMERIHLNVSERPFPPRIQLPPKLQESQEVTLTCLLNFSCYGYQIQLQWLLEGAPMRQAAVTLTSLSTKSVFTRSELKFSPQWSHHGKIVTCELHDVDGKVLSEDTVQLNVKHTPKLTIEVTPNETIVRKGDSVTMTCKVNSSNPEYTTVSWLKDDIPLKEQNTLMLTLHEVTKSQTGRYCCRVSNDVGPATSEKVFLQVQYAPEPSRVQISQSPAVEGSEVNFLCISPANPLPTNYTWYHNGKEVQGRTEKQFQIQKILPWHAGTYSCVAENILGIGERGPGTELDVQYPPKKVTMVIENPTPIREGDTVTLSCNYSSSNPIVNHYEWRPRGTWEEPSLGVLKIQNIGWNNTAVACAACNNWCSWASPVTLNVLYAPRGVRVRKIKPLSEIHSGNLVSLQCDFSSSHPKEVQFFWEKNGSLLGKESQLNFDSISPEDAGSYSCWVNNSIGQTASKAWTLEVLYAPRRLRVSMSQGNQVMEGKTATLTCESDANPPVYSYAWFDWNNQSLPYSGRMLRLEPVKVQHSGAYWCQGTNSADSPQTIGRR

| Compound | Kd [1] [µM] | Kd [2] [µM] | Kd [3] [µM] |
| --- | --- | --- | --- |
| C#CCOCCOCCO[C@]1(C(=O)O)C[C@H](O)[C@@H](NC(=O)CO)[C@H]([C@H](O)[C@H](O)CNC(=O)Cc2ccc(-c3ccccc3)c(O)c2)O1 [Compound 66, (2R,4S,5R,6R)-6-((1R,2R)-1,2-dihydroxy-3-(2-(2-hydroxy-[1,1′-biphenyl]-4-yl)acetamido)propyl)-4-hydroxy-5-(2-hydroxyacetamido)-2-(2-(2-(prop-2-yn-1-yloxy)ethoxy)ethoxy)tetrahydro-2H-pyran-2-carboxylic acid] | > 10 | 1 to 10 | > 10 |
| CC(=O)NCCOCCOCCOCCOCCNc1c(NCCOCCOCCO[C@]2(C(=O)O)C[C@H](O)[C@@H](NC(=O)CO)[C@H]([C@H](O)[C@H](O)CNC(=O)Cc3ccc(-c4ccccc4)cc3)O2)c(=O)c1=O [Cpd. 242, (2R,4S,5R,6R)-6-((1R,2R)-3-(2-([1,1′-biphenyl]-4-yl)acetamido)-1,2-dihydroxypropyl)-2-(2-(2-(2-((3,4-dioxo-2-((2-oxo-6,9,12,15-tetraoxa-3-azaheptadecan-17-yl)amino)cyclobut-1-en-1-yl)amino)ethoxy)ethoxy)ethoxy)-4-hydroxy-5-(2-hydroxyacetamido)tetrahydro-2H-pyran-2-carboxylic acid] | 1 to 10 | 1 to 10 | 1 to 10 |
| CC(=O)NCCOCCOCCOCCOCCC(=O)NCCCCCO[C@]1(C(=O)O)C[C@H](O)[C@@H](NC(=O)CO)[C@H]([C@H](O)[C@H](O)CNC(=O)Cc2ccc(Cl)cc2)O1 [Cpd. 241, (2R,4S,5R,6R)-6-((1R,2R)-3-(2-(4-chlorophenyl)acetamido)-1,2-dihydroxypropyl)-2-((2,18-dioxo-6,9,12,15-tetraoxa-3,19-diazatetracosan-24-yl)oxy)-4-hydroxy-5-(2-hydroxyacetamido) tetrahydro-2H-pyran-2-carboxylic acid] | < 1 | < 1 | 1 to 10 |
| C#CCNc1c(NCCCCCCO[C@]2(C(=O)O)C[C@H](O)[C@@H](NC(=O)CO)[C@H]([C@H](O)[C@H](O)CNC(=O)Cc3ccc(-c4ccccc4)cc3)O2)c(=O)c1=O [Compound 221, (2R,4S,5R,6R)-6-((1R,2R)-3-(2-([1,1′-biphenyl]-4-yl)acetamido)-1,2-dihydroxypropyl)-2-((6-((3,4-dioxo-2-(prop-2-yn-1-ylamino)cyclobut-1-en-1-yl)amino)hexyl)oxy)-4-hydroxy-5-(2-hydroxyacetamido)tetrahydro-2H-pyran-2-carboxylic acid] | < 1 | < 1 | < 1 |
| C#CCOCCNc1c(NCCCCCCO[C@]2(C(=O)O)C[C@H](O)[C@@H](NC(=O)CO)[C@H]([C@H](O)[C@H](O)CNC(=O)Cc3ccc(C(F)F)cc3)O2)c(=O)c1=O [Compound 216, (2R,4S,5R,6R)-6-((1R,2R)-3-(2-(4-(difluoromethyl)phenyl)acetamido)-1,2-dihydroxypropyl)-2-((6-((3,4-dioxo-2-((2-(prop-2-yn-1-yloxy)ethyl)amino)cyclobut-1-en-1-yl)amino)hexyl)oxy)-4-hydroxy-5-(2-hydroxyacetamido)tetrahydro-2H-pyran-2-carboxylic acid] | < 1 | < 1 | < 1 |
| O=C(O)CCCCCCCCCCCCCCCO[C@]1(C(=O)O)C[C@H](O)[C@@H](NC(=O)CO)[C@H]([C@H](O)[C@H](O)CNC(=O)Cc2ccc(Cl)cc2)O1 [Compound 99, (2R,4S,5R,6R)-2-((15-carboxypentadecyl)oxy)-6-((1R,2R)-3-(2-(4-chlorophenyl)acetamido)-1,2-dihydroxypropyl)-4-hydroxy-5-(2-hydroxyacetamido)tetrahydro-2H-pyran-2-carboxylic acid] | < 1 | < 1 | < 1 |
| C#CCOCCNC(=O)CCCCCCO[C@]1(C(=O)O)C[C@H](O)[C@@H](NC(=O)CO)[C@H]([C@H](O)[C@H](O)CNC(=O)Cc2ccc(C(F)F)cc2)O1 [Compound 213, (2R,4S,5R,6R)-6-((1R,2R)-3-(2-(4-(difluoromethyl)phenyl)acetamido)-1,2-dihydroxypropyl)-4-hydroxy-5-(2-hydroxyacetamido)-2-((7-oxo-7-((2-(prop-2-yn-1-yloxy)ethyl)amino)heptyl)oxy)tetrahydro-2H-pyran-2-carboxylic acid] | < 1 | < 1 | < 1 |
| C#CCOP(=O)(O)OCCCCCCO[C@]1(C(=O)O)C[C@H](O)[C@@H](NC(=O)CO)[C@H]([C@H](O)[C@H](O)CNC(=O)Cc2ccc(Cl)cc2)O1 [Compound 105, (2R,4S,5R,6R)-6-((1R,2R)-3-(2-(4-chlorophenyl)acetamido)-1,2-dihydroxypropyl)-4-hydroxy-2-((6-((hydroxy(prop-2-yn-1-yloxy)phosphoryl)oxy)hexyl)oxy)-5-(2-hydroxyacetamido)tetrahydro-2H-pyran-2-carboxylic acid] | < 1 | < 1 | < 1 |
| O=C(Cc1ccc(-c2ccc(O)cc2)cc1)NC[C@@H](O)[C@@H](O)[C@@H]1O[C@](C(=O)O)(n2cc(-c3ccccc3O)nn2)C[C@H](O)[C@H]1NC(=O)CO [Compound 54, (2R,4S,5R,6R)-6-((1R,2R)-1,2-dihydroxy-3-(2-(4′-hydroxy-[1,1′-biphenyl]-4-yl)acetamido)propyl)-4-hydroxy-5-(2-hydroxyacetamido)-2-(4-(2-hydroxyphenyl)-1H-1,2,3-triazol-1-yl)tetrahydro-2H-pyran-2-carboxylic acid] | 1 to 10 | < 1 | > 10 |
| C#CCOCCCCCCO[C@]1(C(=O)O)C[C@H](O)[C@@H](NC(=O)CO)[C@H]([C@H](O)[C@H](O)CNC(=O)Cc2ccc(C(C)C)cc2)O1 [Cpd. 159, (2R,4S,5R,6R)-6-((1R,2R)-1,2-dihydroxy-3-(2-(4-isopropylphenyl)acetamido)propyl)-4-hydroxy-5-(2-hydroxyacetamido)-2-((6-(prop-2-yn-1-yloxy)hexyl)oxy)tetrahydro-2H-pyran-2-carboxylic acid] | < 1 | < 1 | < 1 |
| C#CCOCCOCCO[C@]1(C(=O)O)C[C@H](O)[C@@H](NC(=O)CO)[C@H]([C@H](O)[C@H](O)CNC(=O)Cc2ccc(Cl)c(O)c2)O1 [Compound 134, (2R,4S,5R,6R)-6-((1R,2R)-3-(2-(4-chloro-3-hydroxyphenyl)acetamido)-1,2-dihydroxypropyl)-4-hydroxy-5-(2-hydroxyacetamido)-2-(2-(2-(prop-2-yn-1-yloxy)ethoxy)ethoxy)tetrahydro-2H-pyran-2-carboxylic acid] | < 1 | < 1 | 1 to 10 |
